According to article PMC5259778, “Candidate pheromone receptors of codling moth Cydia pomonella respond to pheromones and kairomones” (Scientific Reports, 2017):

Biological target: CpomOrco + OR6a (Cydia pomonella, UniProt H9A5M1)
Experiment: Calcium imaging of HEK293T cells expressing CpomOrco + OR6a
Type: cell-based
Description: HEK293T cells were grown in HEK cell media [Dulbecco’s modified Eagle’s medium containing 10% fetal bovine serum (MP Biomedicals, Solon, OH, USA), 2.0 mM L-glutamine, and 100 μg/mL Penicillin/Streptomycin (Invitrogen)] at 37 °C and 5% CO2. To test transient expression of CpomORs for calcium imaging or patch-clamp recording experiments, 35-mm petri dishes containing semi-confluent HEK293T cells were transiently transfected. To transfect cells with CpomOrco, we used 1.0 μg of pcDNA5/TO/CpomOrco DNA. In order to promote expression of the OR[51], we used double aliquots for pcDNA5/TO/CpomOR DNAs (2.0 μg), combined with 1.0 μg of pcDNA5/TO/CpomOrco for co-transfections (CpomOrco + ORs). To report expression for calcium imaging experiments, 1.0 μg of a separate plasmid DNA [pEBFP2-Nuc, a gift from Robert Campbell (Addgene plasmid # 14893[52])] carrying the coding sequence for a blue fluorescent protein (BFP) was used. In patch-clamp recordings, 1.0 μg of a separate plasmid DNA (pXOOM, Clontech) carrying the coding sequence for a green fluorescent protein (GFP) was used to report expression. In order to report candidate OR-expressing cells, expression of both fluorescent reporter genes was under the regulation of the same promoter for CpomOR genes (CMV). Transfection DNAs were dissolved in 100 μL sterile DMEM, mixed with 3.0 μL Calfectin (SignaGen, Rockville, MD, USA) following the recommended protocol. To estimate transfection efficiency, a parallel transfection was conducted using the positive control vector pcDNA5/TO/LACZ (Invitrogen) and staining with 0.1% XGal[53].
Transfections were conducted overnight. HEK cell media was replaced with 1.0 mL fresh media to incubate cells at 37 °C for up to 6 h, at which point part of the cell culture was spread in the middle of a 35-mm plate as individual cells or small clusters. After 12 h of incubation at 37 °C and 5% CO2, cells were rinsed at the sides with 2.0 mL fresh HEK media. Cells were allowed to recover for at least 1 h prior to calcium imaging.
To test activation of olfactory receptors, CpomOrco or CpomOrco + ORs HEK293T cells were incubated for 1 h at room temperature in 0.5–1.0 mL HEK cell Ringer (mM: 140 NaCl, 5.0 KCl, 1.0 CaCl2, 1.0 MgCl2, 10 HEPES, 10 Glucose, pH 7.5) containing the fluorescent calcium indicator Fluo-4AM (Invitrogen) at 5–15 μM prepared with 0.2–0.06% Pluronic F-127 (Invitrogen). After incubation, the buffer was removed and cells were rinsed with 4.0 mL fresh HEK Ca^++ Ringer (mM: 140 NaCl, 2.0 CaCl2, 10 HEPES, pH 7.5), and placed on the stage of an inverted microscope (Olympus IX-71, Olympus Corp., Tokyo, Japan) equipped with a cooled CCD camera (ORCA R2, Hamamatsu, Hamamatsu City, Japan). Cells were continuously superfused with Ca^++ Ringer using two gravity fed perfusion contours. The […] contour washing the cells (~250 μL/min) was switched rapidly to the stimulus contour using a multi-channel rapid solution changer (RSC-160, Bio-Logic, Claix, France) under the software control of Clampex 9 (Molecular Devices, Sunnyvale, CA, USA).
Fluorescence imaging was performed using Imaging Workbench 6 software (INDEC BioSystems, Santa Clara, CA, USA). Each cell was assigned a region of interest (ROI) and changes in fluorescence intensity within each ROI were measured and expressed as the fractional change in fluorescence intensity (dF) or in some cases as dF/F0 where F0 is the basal fluorescence level before agonist application. […] Continuous traces of multiple responses were compensated for slow drift of the baseline fluorescence when necessary. All recordings were performed at room temperature (22–25 °C).
HEK293T cells expressing CpomOrco + OR6a, CpomOrco + OR3 and CpomOrco + OR1 were stimulated with an array of compounds such as: potential insect pheromone compounds and plant volatile synergists active on the olfactory system and behaviour of the codling moth[1][25], non-host plant volatiles active on other tortricids, the methyl pear-ester[33] […]

Chain of CpomOrco + OR6a (H9A5M1 entry or part of it): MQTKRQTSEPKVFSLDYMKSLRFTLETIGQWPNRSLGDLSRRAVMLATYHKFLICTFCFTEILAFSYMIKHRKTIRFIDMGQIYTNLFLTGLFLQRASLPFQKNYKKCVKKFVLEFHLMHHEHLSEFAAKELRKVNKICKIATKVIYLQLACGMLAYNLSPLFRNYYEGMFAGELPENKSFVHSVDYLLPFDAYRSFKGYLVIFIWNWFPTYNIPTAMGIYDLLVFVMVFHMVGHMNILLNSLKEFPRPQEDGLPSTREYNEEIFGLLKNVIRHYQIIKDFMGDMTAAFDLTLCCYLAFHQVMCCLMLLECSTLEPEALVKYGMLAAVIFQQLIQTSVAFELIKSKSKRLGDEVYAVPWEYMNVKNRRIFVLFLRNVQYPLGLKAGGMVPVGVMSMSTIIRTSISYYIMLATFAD
Chain of CpomOrco + OR6a (H9A5M2 entry or part of it, further chain): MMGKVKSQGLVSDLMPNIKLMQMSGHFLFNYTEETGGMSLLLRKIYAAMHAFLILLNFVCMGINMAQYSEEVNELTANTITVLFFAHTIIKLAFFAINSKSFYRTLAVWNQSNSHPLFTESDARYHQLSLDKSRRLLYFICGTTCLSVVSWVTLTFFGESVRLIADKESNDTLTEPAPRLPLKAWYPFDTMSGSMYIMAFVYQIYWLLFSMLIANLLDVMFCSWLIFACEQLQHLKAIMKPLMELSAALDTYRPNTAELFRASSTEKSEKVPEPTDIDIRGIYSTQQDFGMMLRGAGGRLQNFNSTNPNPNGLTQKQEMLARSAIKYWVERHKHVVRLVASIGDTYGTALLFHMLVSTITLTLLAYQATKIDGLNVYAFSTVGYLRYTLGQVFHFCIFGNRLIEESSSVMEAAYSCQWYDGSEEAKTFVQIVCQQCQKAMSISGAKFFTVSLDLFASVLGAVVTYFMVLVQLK

Row | amplitude of the calcium response (mean of the maximum response ± SEM) (100 μM, n = 70) | amplitude of the calcium response (mean of the maximum response ± SEM) (250 μM positive control, n = 68) | Compound | amplitude of the calcium response (mean of the maximum response ± SEM) (50 μM, n = 70) | amplitude of the calcium response (mean of the maximum response ± SEM) (1500 μM, n = 68) | Emax (HEK-293T, vs 250 μM VUAA3, read-out: amplitude at saturating concentrations relative to the positive control amplitude) | EC50 (calcium response normalized to 250 μM VUAA3)
1 | 37.96 ± 20.98 dF | 69.71 ± 27.29 dF | CCn1c(SCC(=O)Nc2ccc(C(C)C)cc2)nnc1-c1ccncc1 [VUAA3, acetamide,2-[[4-ethyl-5-(4-pyridinyl)-4H-1,2,4-triazol-3-yl]thio]-N-[4-(1-methylethyl)phenyl]-] |  |  |  | 
2 |  |  | C/C=C/C=C/CCCCCCCOC(C)=O [codlemone acetate, (E,E)-8,10-dodecadien-1-yl acetate] | 12.04 ± 8.17 dF | 18.91 ± 10.31 dF | ~27% | 51.8 ± 13.2 µM
3 |  |  | C/C=C/C=C/CCCCCCCO [codlemone, (E,E)-8,10-dodecadien-1-ol] | 0.38 ± 1.84 dF | 5.7 ± 3.64 dF |  | 
